Assay results from patent US20220396673A1, “METHOD FOR HYDRATING WATER-INSOLUBLE POLYMER CAPABLE OF CONTAINING INTERMEDIATE WATER” (KYUSHU UNIVERSITY, NATIONAL UNIVERSITY CORPORATION, priority 2019, published 2022).

Experiment: Incorporation of fat-soluble drug into white turbid aggregate containing PMEA
Conditions: diluted in PBS, 37° C., fluorescence microscopy after 3 days
Procedure: The dialysis was carried out for 3 days while changing the purified water until the coloring of the external solvent by the elution of DOX was sufficiently removed.
In addition, the white turbid aggregate was diluted in PBS, allowed to stand in an incubator at 37° C., and then the doxorubicin content was confirmed by fluorescence microscopy (after 3 days).

doxorubicin content of the aggregate after storage: confirmed
Structure (SMILES): COc1cccc2c1C(=O)c1c(O)c3c(c(O)c1C2=O)C[C@@](O)(C(=O)CO)C[C@@H]3O[C@H]1C[C@H](N)[C@H](O)[C@H](C)O1 [doxorubicin]
